Measured values published in patent publication US20110281896A1, “OPTICALLY PURE QUINAZOLINE COMPOUNDS” (Jiangsu Hansoh Pharmaceutical Co. Ltd, priority 2009, published 2011).

What was measured:
[1] = test system: A431; experiment: Antitumor activity in vitro, SRB cell proliferation inhibition; format: cell-based; settings: 72 h incubation, Logit method
Description: (§1) Evaluation of Antitumor Activity In Vitro
(§2) Cell Strains: A431; MCF-7
(§3) Experiment Design: Cells were incubated with different concentrations of compounds for 72 hours. The inhibition of cell proliferation by the compounds was evaluated by SRB, followed by calculation of the inhibition rate. Then, value of IC50 was calculated by using-Logit method base on the inhibition rate and used to compare in vitro antitumor activity of the compounds.
(§4) Method for Calculating the Inhibition Rate: Inhibition rate (%)=(OD value of control group−OD value of drug group)/OD value of control group×100%

[2] = test system: MCF-7; experiment: as above; format: cell-based; settings: 72 h incubation, Logit method
Description: as §1, §2, §3, §4

[3] = Homo sapiens, A-431, A431 cells
[4] = Homo sapiens, MCF7, MCF-7 cells

Row | IC50 ([1]; A431 cells) | IC50 ([2]; MCF-7 cells) | IC50 [1, 3] | IC50 [2, 4] | Structure (SMILES)
1 | 523 nM | 7760 nM | – | – | CCCN(CCC)[C@@H](CS(C)(=O)=O)c1cnc(-c2ccc3ncnc(Nc4ccc(OCc5cccc(F)c5)c(Cl)c4)c3c2)s1 [Compound 125]
2 | 536 nM | 8590 nM | – | – | CON(C)[C@@H](CS(C)(=O)=O)c1cnc(-c2ccc3ncnc(Nc4ccc(OCc5cccc(F)c5)c(Cl)c4)c3c2)s1 [Compound 130]
3 | – | – | 578 nM | 6700 nM | CN(C1CC1)[C@H](CS(C)(=O)=O)c1ccc(-c2ccc3ncnc(Nc4ccc(OCc5cccc(F)c5)c(Cl)c4)c3c2)o1 [Compound 96, (S)—N-(4-(3-fluorobenzyl-oxy)-3-chlorophenyl)-6-(5-(1-(cyclopropyl-methyl-amino)-2-(methylsulfonyl)ethyl)furan-2-yl)quinazolin-4-amine]
4 | 637 nM | 6080 nM | – | – | CCCN(CCC)[C@H](CS(C)(=O)=O)c1ccc(-c2ccc3ncnc(Nc4ccc5c(cnn5Cc5cccc(F)c5)c4)c3c2)o1 [Compound 151]
5 | – | – | 711 nM | 4970 nM | CS(=O)(=O)C[C@@H](N)c1ccc(-c2ccc3ncnc(Nc4ccc5c(cnn5Cc5cccc(F)c5)c4)c3c2)o1 [Compound 144, (S)—N-(1-(3-fluorobenzyl)-1H-indazol-5-yl)-6-(5-(1-(amino)-2-(methylsulfonyl)ethyl)furan-2-yl)quinazolin-4-amine]
6 | 499 nM | 6330 nM | – | – | CN(C)[C@@H](CS(C)(=O)=O)c1cnc(-c2ccc3ncnc(Nc4ccc(OCc5cccc(F)c5)c(Cl)c4)c3c2)s1 [Compound 123]
7 | – | – | 578 nM | 6770 nM | CCN[C@@H](CS(C)(=O)=O)c1ccc(-c2ccc3ncnc(Nc4ccc(OCc5cccc(F)c5)c(Cl)c4)c3c2)o1 [Compound 107, (R)—N-(4-(3-fluorobenzyl-oxy)-3-chlorophenyl)-6-(5-(1-(ethylamino)-2-(methylsulfonyl)ethyl)furan-2-yl)quinazolin-4-amine]
8 | 580 nM | 6510 nM | – | – | CCCN[C@H](CS(C)(=O)=O)c1cnc(-c2ccc3ncnc(Nc4ccc(OCc5cccc(F)c5)c(Cl)c4)c3c2)s1 [Compound 134]
9 | 589 nM | 5470 nM | – | – | CCN(CC)[C@H](CS(C)(=O)=O)c1cnc(-c2ccc3ncnc(Nc4ccc(OCc5cccc(F)c5)c(Cl)c4)c3c2)s1 [Compound 137]
10 | – | – | 652 nM | 7850 nM | CCN[C@H](CS(C)(=O)=O)c1ccc(-c2ccc3ncnc(Nc4ccc(OCc5cccc(F)c5)c(Cl)c4)c3c2)o1 [Compound 94, (S)—N-(4-(3-fluorobenzyl-oxy)-3-chlorophenyl)-6-(5-(1-(ethylamino)-2-(methylsulfonyl)ethyl)furan-2-yl)quinazolin-4-amine]
11 | – | – | 442 nM | 7000 nM | CN(C1CC1)[C@H](CS(C)(=O)=O)c1ccc(-c2ccc3ncnc(Nc4ccc5c(cnn5Cc5cccc(F)c5)c4)c3c2)o1 [Compound 148, (S)—N-(1-(3-fluorobenzyl)-1H-indazol-5-yl)-6-(5-(1-(cyclopropyl-methyl-amino)-2-(methylsulfonyl)ethyl)furan-2-yl)quinazolin-4-amine]
12 | 788 nM | 5090 nM | – | – | CON(C)[C@H](CS(C)(=O)=O)c1cnc(-c2ccc3ncnc(Nc4ccc(OCc5cccc(F)c5)c(Cl)c4)c3c2)s1 [Compound 143]
13 | 636 nM | 7630 nM | – | – | CON(C)[C@@H](CS(C)(=O)=O)c1ccc(-c2ccc3ncnc(Nc4ccc(OCc5cccc(F)c5)c(Cl)c4)c3c2)o1 [Compound 117]
14 | – | – | 489 nM | 9900 nM | CCN(C)[C@H](CS(C)(=O)=O)c1ccc(-c2ccc3ncnc(Nc4ccc(OCc5cccc(F)c5)c(Cl)c4)c3c2)o1 [Compound 100, (S)—N-(4-(3-fluorobenzyl-oxy)-3-chlorophenyl)-6-(5-(1-(N-methyl, N-ethyl-amino)-2-(methylsulfonyl)ethyl)furan-2-yl)quinazolin-4-amine]
15 | 624 nM | 6670 nM | – | – | CCN(CC)[C@H](CS(C)(=O)=O)c1ccc(-c2ccc3ncnc(Nc4ccc5c(cnn5Cc5cccc(F)c5)c4)c3c2)o1 [Compound 150]
16 | – | – | 758 nM | 7070 nM | CCN(C)[C@@H](CS(C)(=O)=O)c1ccc(-c2ccc3ncnc(Nc4ccc(OCc5cccc(F)c5)c(Cl)c4)c3c2)o1 [Compound 113, (R)—N-(4-(3-fluorobenzyloxy)-3-chlorophenyl)-6-(5-(1-(N-methyl, N-ethyl-amino)-2-(methylsulfonyl)ethyl)furan-2-yl)quinazolin-4-amine]
17 | – | – | 529 nM | 5900 nM | CCCN[C@@H](CS(C)(=O)=O)c1ccc(-c2ccc3ncnc(Nc4ccc(OCc5cccc(F)c5)c(Cl)c4)c3c2)o1 [Compound 108, (R)—N-(4-(3-fluorobenzyl-oxy)-3-chlorophenyl)-6-(5-(1-(propylamino)-2-(methylsulfonyl)ethyl)furan-2-yl)quinazolin-4-amine]

Row | IC50 ([1]; A431 cells) | IC50 ([2]; MCF-7 cells) | IC50 [1, 3] | IC50 [2, 4] | Structure (SMILES)
18 | – | – | 581 nM | 8240 nM | CN[C@H](CS(C)(=O)=O)c1ccc(-c2ccc3ncnc(Nc4ccc5c(cnn5Cc5cccc(F)c5)c4)c3c2)o1 [Compound 145, (S)—N-(1-(3-fluorobenzyl)-1H-indazol-5-yl)-6-(5-(1-(methylamino)-2-(methylsulfonyl)ethyl)furan-2-yl)quinazolin-4-amine]
19 | 452 nM | 4130 nM | – | – | CCN(C)[C@H](CS(C)(=O)=O)c1cnc(-c2ccc3ncnc(Nc4ccc(OCc5cccc(F)c5)c(Cl)c4)c3c2)s1 [Compound 139]
20 | 667 nM | 9710 nM | – | – | CON[C@@H](CS(C)(=O)=O)c1cnc(-c2ccc3ncnc(Nc4ccc(OCc5cccc(F)c5)c(Cl)c4)c3c2)s1 [Compound 129]
21 | – | – | 677 nM | 7660 nM | CCN(CC)[C@H](CS(C)(=O)=O)c1ccc(-c2ccc3ncnc(Nc4ccc(OCc5cccc(F)c5)c(Cl)c4)c3c2)o1 [Compound 98, (S)—N-(4-(3-fluorobenzyl-oxy)-3-chlorophenyl)-6-(5-(1-(N,N-diethyl-amino)-2-(methyl-sulfonyl)ethyl)furan-2-yl)quinazolin-4-amine]
22 | 554 nM | 7890 nM | – | – | CCN[C@H](CS(C)(=O)=O)c1cnc(-c2ccc3ncnc(Nc4ccc(OCc5cccc(F)c5)c(Cl)c4)c3c2)s1 [Compound 133]
23 | 460 nM | 8860 nM | – | – | CN[C@H](CS(C)(=O)=O)c1ccc(-c2ccc3ncnc(Nc4ccc(OCc5cccc(F)c5)c(Cl)c4)c3c2)o1 [Compound 93, (S)—N-(4-(3-fluorobenzyl-oxy)-3-chlorphenyl)-6-(5-(1-(methylamino)-2-(methylsulfonyl)ethyl)furan-2-yl)quinazolin-4-amine]
24 | 479 nM | 8820 nM | – | – | CON[C@H](CS(C)(=O)=O)c1ccc(-c2ccc3ncnc(Nc4ccc(OCc5cccc(F)c5)c(Cl)c4)c3c2)o1 [Compound 103]
25 | 488 nM | 7760 nM | – | – | CCN(C)[C@@H](CS(C)(=O)=O)c1cnc(-c2ccc3ncnc(Nc4ccc(OCc5cccc(F)c5)c(Cl)c4)c3c2)s1 [Compound 126]
26 | – | – | 759 nM | 5920 nM | CCCN(CCC)[C@H](CS(C)(=O)=O)c1ccc(-c2ccc3ncnc(Nc4ccc(OCc5cccc(F)c5)c(Cl)c4)c3c2)o1 [Compound 99, (S)—N-(4-(3-fluorobenzyl-oxy)-3-chlorophenyl)-6-(5-(1-(N,N-dipropyl-amino)-2-(methylsulfonyl)ethyl)furan-2-yl)quinazolin-4-amine]
27 | – | – | 624 nM | 4900 nM | C#CCN[C@H](CS(C)(=O)=O)c1ccc(-c2ccc3ncnc(Nc4ccc5c(cnn5Cc5cccc(F)c5)c4)c3c2)o1 [Compound 154, (S)—N-(1-(3-fluorobenzyl)-1H-indazol-5-yl)-6-(5-(1-(propargyl-amino)-2-(methylsulfonyl)ethyl)furan-2-yl)quinazolin-4-amine]
28 | 632 nM | 9000 nM | – | – | CON(C)[C@H](CS(C)(=O)=O)c1ccc(-c2ccc3ncnc(Nc4ccc(OCc5cccc(F)c5)c(Cl)c4)c3c2)o1 [Compound 104]
29 | – | – | 469 nM | 7800 nM | CN[C@@H](CS(C)(=O)=O)c1ccc(-c2ccc3ncnc(Nc4ccc(OCc5cccc(F)c5)c(Cl)c4)c3c2)o1 [Compound 106, (R)—N-(4-(3-fluorobenzyl-oxy)-3-chlorophenyl)-6-(5-(1-(methylamino)-2-(methylsulfonyl)ethyl)furan-2-yl)quinazolin-4-amine]
30 | 601 nM | 6540 nM | – | – | CCN(C)[C@H](CS(C)(=O)=O)c1ccc(-c2ccc3ncnc(Nc4ccc5c(cnn5Cc5cccc(F)c5)c4)c3c2)o1 [Compound 152]
31 | 389 nM | 9910 nM | – | – | CN[C@H](CS(C)(=O)=O)c1cnc(-c2ccc3ncnc(Nc4ccc(OCc5cccc(F)c5)c(Cl)c4)c3c2)s1 [Compound 132]
32 | – | – | 582 nM | 8520 nM | CS(=O)(=O)C[C@@H](N)c1cnc(-c2ccc3ncnc(Nc4ccc(OCc5cccc(F)c5)c(Cl)c4)c3c2)s1 [Compound 131, (R)—N-(4-(3-fluorobenzyl-oxy)-3-chlorophenyl)-6-(5-(1-(amino)-2-(methylsulfonyl)ethyl)thiazole-2-yl)quinazolin-4-amine]
33 | 465 nM | 6390 nM | – | – | CCCN[C@@H](CS(C)(=O)=O)c1cnc(-c2ccc3ncnc(Nc4ccc(OCc5cccc(F)c5)c(Cl)c4)c3c2)s1 [Compound 121]

Row | Structure (SMILES) | IC50 ([1]; A431 cells) | IC50 ([2]; MCF-7 cells) | IC50 [1, 3] | IC50 [2, 4]
34 | C#CCN[C@H](CS(C)(=O)=O)c1cnc(-c2ccc3ncnc(Nc4ccc(OCc5cccc(F)c5)c(Cl)c4)c3c2)s1 [Compound 141] | 486 nM | 7620 nM | – | –
35 | C=CCN[C@@H](CS(C)(=O)=O)c1cnc(-c2ccc3ncnc(Nc4ccc(OCc5cccc(F)c5)c(Cl)c4)c3c2)s1 [Compound 127] | 521 nM | 5890 nM | – | –
36 | C#CCN[C@@H](CS(C)(=O)=O)c1cnc(-c2ccc3ncnc(Nc4ccc(OCc5cccc(F)c5)c(Cl)c4)c3c2)s1 [Compound 128] | 672 nM | 6340 nM | – | –
